Experimental findings from paper PMC3081901 (Bioorganic & medicinal chemistry letters, 2010) are described below.

The experiment addresses T1, human A1 AR (Homo sapiens, UniProt P30542).
T1 sequence (P30542 1-326): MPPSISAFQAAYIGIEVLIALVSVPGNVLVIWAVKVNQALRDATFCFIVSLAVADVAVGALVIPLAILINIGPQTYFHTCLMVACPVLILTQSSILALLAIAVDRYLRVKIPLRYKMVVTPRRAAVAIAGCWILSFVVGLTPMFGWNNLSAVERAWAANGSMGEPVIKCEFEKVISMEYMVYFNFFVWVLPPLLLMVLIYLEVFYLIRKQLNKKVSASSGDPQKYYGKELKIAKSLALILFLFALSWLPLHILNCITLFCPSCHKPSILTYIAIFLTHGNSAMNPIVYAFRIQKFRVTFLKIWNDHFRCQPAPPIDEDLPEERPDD
Briefly: Competition radioligand binding, human A1 AR.

In the case of `Nc1nc2c(cnn2CCCc2ccc(OCC(=O)NCCNCCNC(=O)CCCCCNC(=O)COc3ccc(/C=C/C4=[N+]5C(=Cc6ccc(-c7ccc[nH]7)n6[B-]5(F)F)C=C4)cc3)cc2)c2nc(-c3ccco3)nn12` [Compound 14], the Ki (commonly a dissociation constant, usually derived from enzyme kinetics or from competition with a known ligand) was 4.18 ± 0.92 µM.
